Active and inactive are the calls of the source.
Assays:
[1] = target: T1, DNA repair protein RAD52 homolog (Homo sapiens, UniProt P43351); assay type: functional, biochemical
T1 sequence (P43351 whole entry): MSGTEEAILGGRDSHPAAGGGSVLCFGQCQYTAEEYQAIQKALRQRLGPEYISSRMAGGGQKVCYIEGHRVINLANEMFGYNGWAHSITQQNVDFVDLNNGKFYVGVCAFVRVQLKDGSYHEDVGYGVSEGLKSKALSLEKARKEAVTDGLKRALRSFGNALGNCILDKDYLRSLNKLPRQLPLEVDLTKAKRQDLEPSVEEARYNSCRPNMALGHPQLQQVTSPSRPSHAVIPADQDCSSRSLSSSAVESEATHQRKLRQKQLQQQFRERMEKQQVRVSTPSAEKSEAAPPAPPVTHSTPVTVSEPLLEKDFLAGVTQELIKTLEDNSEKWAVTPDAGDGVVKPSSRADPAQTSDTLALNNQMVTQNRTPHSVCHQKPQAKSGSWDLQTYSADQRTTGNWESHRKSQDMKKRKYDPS

[2] = target: T2, Corticotropin-releasing factor receptor 2/Corticotropin-releasing factor-binding protein (Homo sapiens, UniProt P24387+Q13324); experiment: activators of CRF receptor 2 with binding protein – uHTS hits, confirmation (AID 602473); assay type: functional; details: read-out: EC50_Mean
T2 sequence (Q13324 whole entry): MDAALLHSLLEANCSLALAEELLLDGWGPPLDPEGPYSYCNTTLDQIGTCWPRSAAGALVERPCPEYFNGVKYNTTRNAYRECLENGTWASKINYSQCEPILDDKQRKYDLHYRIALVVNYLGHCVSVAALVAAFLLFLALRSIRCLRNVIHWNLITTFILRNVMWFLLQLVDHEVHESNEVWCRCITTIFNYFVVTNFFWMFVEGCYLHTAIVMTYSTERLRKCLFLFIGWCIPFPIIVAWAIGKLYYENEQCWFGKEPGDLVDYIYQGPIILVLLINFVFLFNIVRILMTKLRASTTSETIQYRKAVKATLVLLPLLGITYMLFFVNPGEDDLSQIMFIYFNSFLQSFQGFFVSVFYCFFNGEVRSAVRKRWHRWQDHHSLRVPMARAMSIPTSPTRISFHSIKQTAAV
T2 sequence (P24387 whole entry): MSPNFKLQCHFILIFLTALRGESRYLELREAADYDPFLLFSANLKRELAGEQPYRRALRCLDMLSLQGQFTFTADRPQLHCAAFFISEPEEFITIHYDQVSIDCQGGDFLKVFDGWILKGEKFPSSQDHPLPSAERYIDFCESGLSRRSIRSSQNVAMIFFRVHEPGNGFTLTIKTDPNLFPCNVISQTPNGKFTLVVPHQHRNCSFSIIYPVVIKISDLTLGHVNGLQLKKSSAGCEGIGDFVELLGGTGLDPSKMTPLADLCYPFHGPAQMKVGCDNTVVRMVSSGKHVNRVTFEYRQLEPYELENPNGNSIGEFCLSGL

[3] = target: T2, Corticotropin-releasing factor receptor 2/Corticotropin-releasing factor-binding protein; experiment: Dose Response confirmation of uHTS hits for small molecule antagonists of the CRF-binding protein and CRF-R2 receptor complex.; assay type: functional; details: read-out: IC50_Mean
[4] = microbe, parasite or virus in culture; assay type: functional; details: Mycobacterium tuberculosis
[5] = blockers of CRF-binding protein–CRF-R2 complex – cell-based, uHTS hits, 384-well, dose response (AID 651639); assay type: functional, Homo sapiens; details: read-out: IC50_Mean
[6] = target: T3, Replicative DNA helicase DnaB (Mycobacterium tuberculosis, UniProt P9WMR3); experiment: DnaB intein splicing inhibitors, dose response, biochemical, cell-free fluorescence (AID 449749); assay type: functional
T3 sequence (P9WMR3 whole entry): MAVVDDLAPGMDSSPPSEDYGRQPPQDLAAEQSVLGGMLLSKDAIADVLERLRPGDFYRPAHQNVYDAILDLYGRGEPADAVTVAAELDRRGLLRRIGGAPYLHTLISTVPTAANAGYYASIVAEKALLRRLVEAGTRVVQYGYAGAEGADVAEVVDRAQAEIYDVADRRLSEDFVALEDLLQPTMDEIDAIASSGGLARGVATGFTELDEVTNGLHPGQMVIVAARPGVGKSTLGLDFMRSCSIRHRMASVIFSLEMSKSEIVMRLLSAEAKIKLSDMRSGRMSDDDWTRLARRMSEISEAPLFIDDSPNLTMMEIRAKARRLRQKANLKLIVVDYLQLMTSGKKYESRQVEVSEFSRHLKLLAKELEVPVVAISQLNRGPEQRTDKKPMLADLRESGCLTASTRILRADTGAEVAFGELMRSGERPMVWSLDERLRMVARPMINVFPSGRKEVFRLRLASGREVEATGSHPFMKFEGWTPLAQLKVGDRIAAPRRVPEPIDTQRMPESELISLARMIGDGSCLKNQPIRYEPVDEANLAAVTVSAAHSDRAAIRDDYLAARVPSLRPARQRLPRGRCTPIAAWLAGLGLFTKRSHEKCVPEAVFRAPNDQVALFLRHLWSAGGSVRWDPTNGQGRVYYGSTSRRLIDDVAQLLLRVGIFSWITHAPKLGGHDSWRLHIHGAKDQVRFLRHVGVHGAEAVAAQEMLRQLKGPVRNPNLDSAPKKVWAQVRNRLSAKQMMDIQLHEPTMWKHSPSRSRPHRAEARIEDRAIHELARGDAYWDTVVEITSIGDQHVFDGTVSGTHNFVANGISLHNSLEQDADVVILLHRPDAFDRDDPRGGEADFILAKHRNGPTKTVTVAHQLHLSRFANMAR

[7] = target: T4, Sentrin-specific protease 8 (Homo sapiens, UniProt Q96LD8); assay type: functional
T4 sequence (Q96LD8 whole entry): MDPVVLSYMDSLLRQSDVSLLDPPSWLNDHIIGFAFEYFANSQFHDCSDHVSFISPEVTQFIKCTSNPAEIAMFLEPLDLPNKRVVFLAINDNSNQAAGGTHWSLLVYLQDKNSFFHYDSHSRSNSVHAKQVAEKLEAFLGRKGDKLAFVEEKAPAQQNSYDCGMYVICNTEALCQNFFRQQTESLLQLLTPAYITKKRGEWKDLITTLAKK

[8] = target: T4, Sentrin-specific protease 8; assay type: functional; remark: listed apart in the source
Protein RecA = target: T5, Protein RecA (Mycobacterium tuberculosis, UniProt P9WHJ3); experiment: Fluorescence Cell-Free Homogeneous Dose Retest to Identify Inhibitors of RecA-Intein Splicing Activity. [Related pubchem assays (depositor defined):AID2097, AID2223, AID489010, AID492950]; assay type: functional
T5 sequence (P9WHJ3 whole entry): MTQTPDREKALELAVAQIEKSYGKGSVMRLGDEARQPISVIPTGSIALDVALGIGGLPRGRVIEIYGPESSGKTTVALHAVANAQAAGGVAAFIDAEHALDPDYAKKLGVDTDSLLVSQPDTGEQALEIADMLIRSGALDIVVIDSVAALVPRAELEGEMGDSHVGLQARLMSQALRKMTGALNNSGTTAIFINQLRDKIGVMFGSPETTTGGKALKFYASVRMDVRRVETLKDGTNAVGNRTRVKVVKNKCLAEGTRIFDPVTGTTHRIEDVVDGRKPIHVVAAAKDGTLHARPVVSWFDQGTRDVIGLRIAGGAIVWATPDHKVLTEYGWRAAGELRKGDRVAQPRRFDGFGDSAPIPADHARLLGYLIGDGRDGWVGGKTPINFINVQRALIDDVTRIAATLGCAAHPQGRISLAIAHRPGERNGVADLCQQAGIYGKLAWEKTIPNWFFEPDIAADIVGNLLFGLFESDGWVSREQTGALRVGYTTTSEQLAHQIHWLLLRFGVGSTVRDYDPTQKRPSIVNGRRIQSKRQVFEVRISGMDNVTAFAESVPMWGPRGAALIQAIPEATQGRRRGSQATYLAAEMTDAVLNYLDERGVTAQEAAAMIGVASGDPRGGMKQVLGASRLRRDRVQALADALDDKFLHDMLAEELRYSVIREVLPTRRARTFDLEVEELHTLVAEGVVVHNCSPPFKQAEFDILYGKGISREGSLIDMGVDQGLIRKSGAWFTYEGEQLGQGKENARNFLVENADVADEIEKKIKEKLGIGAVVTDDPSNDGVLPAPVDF

Large T antigen = Large T antigen (Simian virus 40, UniProt P03070); assay type: functional, Betapolyomavirus macacae;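 further: Confirmatory-stage PubChem screen for compounds that inhibit SV40 T antigen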
cells = assay type: functional, cell-based
H9c2 = experiment: cells; assay type: functional, cell-based; details: Rattus norvegicus, H9c2, Myocardium;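 further: confirmatory concentration-response retest of ultra-high-throughput screening hits for modulation of myocardial damage; cell death induced by hydrogen peroxide oxidative stress; compound pretreatment for 60 min then peroxide exposure for 2 h; potency is for protecting the cells against peroxide damage rather than for killing them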
Fatty acid synthase [9] = target: T6, Fatty acid synthase (Homo sapiens, UniProt P49327); experiment: inhibition of human FAS-TE enzyme activity – biochemical, kinetic fluorescence intensity, dose response (AID 624326); assay type: functional;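 further: rate of fluorescence rise from hydrolysis of a fluorogenic O-methyl fluorescein ester substrate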
Fatty acid synthase [10] = target: T6, Fatty acid synthase; experiment: inhibition of human FAS-TE enzyme activity – biochemical, endpoint fluorescence intensity, uHTS hits, dose response (AID 624327); assay type: functional;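 further: fluorescence from hydrolysis of an O-methyl fluorescein acyl ester substrate by the enzyme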
[11] = blockers of HIV-1 envelope-mediated cell-cell fusion – cherry-pick, dose response (AID 652057); assay type: functional, cell-based
[12] = blockers of HIV-1 ZM109 envelope-driven cell-cell fusion – HeLa effector, CEM target cells, luciferase, cherry-pick, dose response (AID 652058); assay type: functional, cell-based;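 further: luciferase signal from HIV-1 Env mediated cell-cell fusion of effector and target cells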
[13] = HIV-1 AD8 envelope cell-cell fusion blockers – cherry-pick, dose response (AID 652062); assay type: functional, cell-based;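 further: luciferase signal from cell-cell fusion driven by HIV-1 clade B AD8 Env; potency is for inhibitors of fusion seen as a drop in luminescence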
[14] = viability loss in CEM21 cells – cell-based, CellTiter-Glo luminescence, cherry-picked, cytotoxicity control for viral fusion inhibitor project, dose response (AID 652042); assay type: functional;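 further: potency for signal decrease meaning cytotoxicity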
[15] = target: Induced myeloid leukemia cell differentiation protein Mcl-1 (Homo sapiens, UniProt Q07820); assay type: functional
[16] = HEK-293T viability loss after treatment – luminescence, T-cell screen hits, cytotoxicity control for TCR NF-kB inhibitor project, dose response (AID 489026); assay type: functional, cell-based;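 further: cells exposed to compound about 14 hours before the viability readout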
Paired box protein Pax-8 = Paired box protein Pax-8 (Homo sapiens, UniProt Q06710); experiment: PAX8 transcriptional activity inhibition in RMG-I – RMG-I cells, luciferase, cherry-pick, dose response (AID 687027); assay type: functional, cell-based;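 further: luciferase reporter driven by Pax8 target thyroperoxidase promoter measured by SteadyGlo luminescence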
Paired box protein Pax-8, sequence (Q06710 whole entry): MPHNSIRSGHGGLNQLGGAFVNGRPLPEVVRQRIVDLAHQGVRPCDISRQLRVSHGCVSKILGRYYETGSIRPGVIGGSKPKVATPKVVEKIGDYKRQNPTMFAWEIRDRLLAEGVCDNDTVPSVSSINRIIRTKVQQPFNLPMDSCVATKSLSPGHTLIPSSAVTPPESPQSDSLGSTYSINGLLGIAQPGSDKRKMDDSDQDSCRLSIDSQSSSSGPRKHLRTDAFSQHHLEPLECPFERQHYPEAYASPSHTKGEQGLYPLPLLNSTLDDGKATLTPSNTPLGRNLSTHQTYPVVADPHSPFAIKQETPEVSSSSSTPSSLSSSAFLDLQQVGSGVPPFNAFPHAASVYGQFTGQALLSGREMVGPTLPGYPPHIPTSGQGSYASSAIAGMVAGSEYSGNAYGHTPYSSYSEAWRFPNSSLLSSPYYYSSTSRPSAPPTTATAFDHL

Large T antigen, sequence (P03070 whole entry): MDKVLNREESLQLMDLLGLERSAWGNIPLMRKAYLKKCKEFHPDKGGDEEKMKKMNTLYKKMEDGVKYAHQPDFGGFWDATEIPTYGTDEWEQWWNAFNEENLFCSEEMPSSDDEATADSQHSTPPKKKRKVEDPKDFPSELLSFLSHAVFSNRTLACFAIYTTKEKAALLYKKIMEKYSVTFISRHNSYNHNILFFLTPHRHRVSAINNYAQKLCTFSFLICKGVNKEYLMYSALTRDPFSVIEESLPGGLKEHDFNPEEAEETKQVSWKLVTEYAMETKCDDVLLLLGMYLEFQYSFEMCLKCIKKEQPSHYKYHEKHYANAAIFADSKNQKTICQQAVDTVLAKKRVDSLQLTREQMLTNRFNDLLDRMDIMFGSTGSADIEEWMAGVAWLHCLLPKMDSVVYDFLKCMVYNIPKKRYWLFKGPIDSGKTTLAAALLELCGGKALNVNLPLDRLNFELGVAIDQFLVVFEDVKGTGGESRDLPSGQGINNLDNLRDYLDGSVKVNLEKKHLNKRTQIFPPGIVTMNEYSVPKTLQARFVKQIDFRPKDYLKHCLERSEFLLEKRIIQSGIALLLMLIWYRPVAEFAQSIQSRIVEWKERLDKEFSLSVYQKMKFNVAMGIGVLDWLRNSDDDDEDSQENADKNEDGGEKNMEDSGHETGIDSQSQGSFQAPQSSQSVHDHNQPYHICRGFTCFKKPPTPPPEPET
T6 sequence (P49327 whole entry): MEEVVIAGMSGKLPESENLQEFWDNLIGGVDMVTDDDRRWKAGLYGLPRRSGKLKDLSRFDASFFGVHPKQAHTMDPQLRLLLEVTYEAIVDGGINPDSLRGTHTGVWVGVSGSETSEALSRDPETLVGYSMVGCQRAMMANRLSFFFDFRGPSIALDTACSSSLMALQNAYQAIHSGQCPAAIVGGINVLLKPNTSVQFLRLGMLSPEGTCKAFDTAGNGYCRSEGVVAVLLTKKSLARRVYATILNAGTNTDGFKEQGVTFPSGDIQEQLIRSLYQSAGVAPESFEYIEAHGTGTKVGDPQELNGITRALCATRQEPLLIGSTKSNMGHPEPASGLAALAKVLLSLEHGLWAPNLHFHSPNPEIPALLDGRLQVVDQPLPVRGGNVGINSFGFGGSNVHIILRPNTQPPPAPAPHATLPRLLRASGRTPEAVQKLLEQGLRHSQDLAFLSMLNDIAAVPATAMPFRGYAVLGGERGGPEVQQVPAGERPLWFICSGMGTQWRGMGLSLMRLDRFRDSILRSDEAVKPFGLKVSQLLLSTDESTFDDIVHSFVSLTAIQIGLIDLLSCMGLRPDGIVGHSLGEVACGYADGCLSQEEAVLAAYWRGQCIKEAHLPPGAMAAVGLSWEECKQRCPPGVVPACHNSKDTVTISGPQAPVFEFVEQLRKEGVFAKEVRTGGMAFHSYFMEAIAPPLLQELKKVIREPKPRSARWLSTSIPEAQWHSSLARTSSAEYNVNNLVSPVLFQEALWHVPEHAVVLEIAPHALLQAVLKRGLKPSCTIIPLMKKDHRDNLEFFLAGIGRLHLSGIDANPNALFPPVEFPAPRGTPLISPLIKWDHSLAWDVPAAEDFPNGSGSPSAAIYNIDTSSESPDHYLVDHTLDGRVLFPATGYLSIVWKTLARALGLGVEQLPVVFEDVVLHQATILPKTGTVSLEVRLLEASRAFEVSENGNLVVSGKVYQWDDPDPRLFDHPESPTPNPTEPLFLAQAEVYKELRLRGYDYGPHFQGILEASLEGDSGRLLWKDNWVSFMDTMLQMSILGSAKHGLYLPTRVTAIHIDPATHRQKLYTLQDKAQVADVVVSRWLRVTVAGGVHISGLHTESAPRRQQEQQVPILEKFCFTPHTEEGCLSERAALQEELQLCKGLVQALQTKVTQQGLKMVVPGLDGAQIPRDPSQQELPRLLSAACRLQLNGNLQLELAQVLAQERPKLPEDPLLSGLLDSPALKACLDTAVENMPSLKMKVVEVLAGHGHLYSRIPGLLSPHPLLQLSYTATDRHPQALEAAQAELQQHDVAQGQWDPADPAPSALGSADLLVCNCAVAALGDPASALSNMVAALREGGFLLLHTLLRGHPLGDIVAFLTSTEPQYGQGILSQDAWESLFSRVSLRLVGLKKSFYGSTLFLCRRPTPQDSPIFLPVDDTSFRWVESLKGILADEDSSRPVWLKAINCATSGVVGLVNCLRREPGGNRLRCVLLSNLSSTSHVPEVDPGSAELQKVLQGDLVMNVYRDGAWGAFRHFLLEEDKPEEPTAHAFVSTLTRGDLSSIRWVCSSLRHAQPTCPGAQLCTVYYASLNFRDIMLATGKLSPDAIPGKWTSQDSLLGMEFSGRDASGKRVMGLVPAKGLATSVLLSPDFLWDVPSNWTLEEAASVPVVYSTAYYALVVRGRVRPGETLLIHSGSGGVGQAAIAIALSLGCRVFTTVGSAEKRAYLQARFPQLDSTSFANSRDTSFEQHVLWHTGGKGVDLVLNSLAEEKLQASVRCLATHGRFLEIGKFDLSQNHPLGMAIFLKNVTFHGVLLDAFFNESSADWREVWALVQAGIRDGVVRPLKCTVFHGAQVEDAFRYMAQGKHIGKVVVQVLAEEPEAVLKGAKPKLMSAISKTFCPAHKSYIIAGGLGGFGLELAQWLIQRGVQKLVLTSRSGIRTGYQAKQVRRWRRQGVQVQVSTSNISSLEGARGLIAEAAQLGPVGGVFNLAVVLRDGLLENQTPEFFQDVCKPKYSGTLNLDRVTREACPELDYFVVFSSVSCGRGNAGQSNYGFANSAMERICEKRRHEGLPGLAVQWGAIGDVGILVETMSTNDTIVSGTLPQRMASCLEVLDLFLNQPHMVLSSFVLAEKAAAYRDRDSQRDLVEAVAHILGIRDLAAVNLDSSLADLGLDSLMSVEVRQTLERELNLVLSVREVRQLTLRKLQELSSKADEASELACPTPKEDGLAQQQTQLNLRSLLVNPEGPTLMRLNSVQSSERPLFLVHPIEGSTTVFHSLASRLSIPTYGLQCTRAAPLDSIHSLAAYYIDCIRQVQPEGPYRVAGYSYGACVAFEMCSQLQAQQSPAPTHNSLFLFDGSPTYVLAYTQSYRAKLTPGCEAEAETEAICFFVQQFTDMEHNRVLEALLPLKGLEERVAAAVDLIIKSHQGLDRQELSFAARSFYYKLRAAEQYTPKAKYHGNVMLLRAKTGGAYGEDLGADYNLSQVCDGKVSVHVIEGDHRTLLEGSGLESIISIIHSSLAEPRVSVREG
Induced myeloid leukemia cell differentiation protein Mcl-1, sequence (Q07820 whole entry): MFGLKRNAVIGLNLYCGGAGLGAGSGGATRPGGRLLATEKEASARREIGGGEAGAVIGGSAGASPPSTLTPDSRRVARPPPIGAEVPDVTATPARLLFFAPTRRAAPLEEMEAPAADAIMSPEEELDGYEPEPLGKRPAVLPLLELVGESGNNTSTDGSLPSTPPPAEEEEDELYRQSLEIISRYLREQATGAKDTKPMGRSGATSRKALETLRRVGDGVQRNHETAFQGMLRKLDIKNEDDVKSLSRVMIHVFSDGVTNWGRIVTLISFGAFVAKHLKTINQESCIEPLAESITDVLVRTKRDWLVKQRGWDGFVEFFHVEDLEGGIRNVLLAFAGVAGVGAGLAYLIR

CN/C(=C/[N+](=O)[O-])NCCSCc1ccc(CN(C)C)o1
AC50 [1]: 18 µM (active)

Cc1cc(OC(=O)c2cccs2)c2c3c(c(=O)oc2c1)CCCC3
EC50 [2]: > 53 µM (inactive) | IC50 [3]: 16.4 µM (active) | CC50 [4]: > 40 µM (active) | IC50 [5]: > 20 µM (inactive)

COc1cccc(N/C([S-])=C(/C(=O)c2ccc(OC(F)F)cc2)[n+]2ccccc2)c1
AC50 [6]: 23.9 µM (active) | IC50 [7]: 6 µM (active) | IC50 [8]: 3.93 µM (active) | EC50 (Protein RecA): 8.62 µM (active)

Cc1nc(C)c(-c2csc(Nc3ccc(N)cc3)n2)s1
IC50 (Large T antigen): 11.5 µM (active)

O=C(NC(=O)c1ccccc1O)c1ccc(C(F)(F)F)cc1
EC50 [2]: 9.51 µM (active) | IC50 [3]: 4.31 µM (active) | IC50 [5]: 15 µM (active)

CC(NC(=O)C12CC3CC(CC(O)(C3)C1)C2)c1ccc(Cl)cc1Cl (stereo unspecified)
EC50 (cells): > 350 µM (not active)

CC(=O)N1CCN(c2ccccc2NC(=O)c2ccc(-c3cccc([N+](=O)[O-])c3)o2)CC1
IC50 (H9c2): > 79 µM (inactive) | IC50 (Fatty acid synthase [9]): 12.1 µM (active) | IC50 (Fatty acid synthase [10]): 8.81 µM (active)

COc1cccc(CNC(=O)COC(=O)c2cc([N+](=O)[O-])ccc2N2CCCC2)c1
IC50 (Fatty acid synthase [9]): 1.23 µM (active) | IC50 (Fatty acid synthase [10]): 3.18 µM (active)

Cc1ccc(S(=O)(=O)c2nnn3c2nc(N2CCOCC2)c2ccccc23)cc1C
EC50 [2]: > 53 µM (inactive) | IC50 [3]: 5.78 µM (active) | IC50 [5]: 7.26 µM (active)

CC(C)(C)c1ccc(C(=O)NCC(=O)OCc2ccc([N+](=O)[O-])cc2)cc1
IC50 (Fatty acid synthase [9]): 1.69 µM (active) | IC50 (Fatty acid synthase [10]): 2.66 µM (active)

CCOc1cc(CNc2ccc(N3CCN(C(C)=O)CC3)cc2)cc(Br)c1OC
IC50 (Large T antigen): 8.75 µM (active)

CC(C(=O)c1ccc(-c2ccccc2)cc1)[n+]1cccc(NC(=O)c2ccccc2)c1 (stereo unspecified)
AC50 [1]: 19.1 µM (active)

O=C1NC(=S)N(C2CC2)C(=O)/C1=C/NNc1ccccc1
IC50 (Large T antigen): 8.87 µM (active)

Cn1c(N)c(C(=O)COC(=O)CNS(=O)(=O)c2ccc(Cl)c(Cl)c2)c(=O)n(C)c1=O
EC50 [2]: > 53 µM (inactive) | IC50 [3]: 30.8 µM (active) | IC50 [5]: 9.63 µM (active)

OC(CN1CCNCC1)Cn1c2ccccc2c2ccccc21 (stereo unspecified)
AC50 [1]: 20.7 µM (active)

CN(C)CCNC(=O)c1cccc(-c2cnc3c(NC=O)cc(/C=C/c4ccccc4)cn23)c1
AC50 [1]: 2.21 µM (active)

CCOC(=O)c1ccc(/N=c2\sc(C(=O)OC)cc(=O)n2CCCN2CCOCC2)cc1
EC50 [2]: > 53 µM (inactive) | IC50 [3]: 4.49 µM (active) | IC50 [5]: 4.53 µM (active)

Cc1cc([N+](=O)[O-])nn1CC(=O)N/N=C/c1ccccc1Br
IC50 (Fatty acid synthase [9]): 7.28 µM (active) | IC50 (Fatty acid synthase [10]): 10.3 µM (active)

Cc1csc(N(C(=O)CCNC(=O)c2ccc([N+](=O)[O-])cc2)c2ccccc2)n1
IC50 (Fatty acid synthase [9]): 4.74 µM (active) | IC50 (Fatty acid synthase [10]): 5.73 µM (active)

O=C(C[C@H]1CC[C@@H](NC(=O)c2cccc(F)c2)[C@@H](CO)O1)NCc1ccc(Oc2ccccc2)cc1
AC50 [11]: 0.525 µM (active) | AC50 [12]: 1.21 µM (active) | AC50 [13]: 1.2 µM (active) | AC50 [14]: 58.1 µM (active)

C[C@H](C(=O)N(C)C[C@@H]1OCc2ccccc2-c2c(n(C)c3ccccc23)C(=O)N([C@@H](C)CO)C[C@H]1C)c1ccccc1
AC50 [11]: 4.94 µM (active) | AC50 [12]: 12 µM (active) | AC50 [13]: 8.67 µM (active) | AC50 [14]: 22.5 µM (active)

CCOc1cc(/C=N/Nc2nc(-c3cccs3)c(NC(C)=O)s2)ccc1O
IC50 [15]: 3.51 µM (active) | IC50 (Large T antigen): 30.5 µM (active)

COc1ccc(OC)c(-c2nnc3n2N=C(c2ccc(OC)c(OC4CCCC4)c2)CS3)c1
IC50 [16]: 28.3 µM (inactive) | AC50 (Paired box protein Pax-8): 3.49 µM (active)

Source: ChEMBL document CHEMBL1201862, “PubChem BioAssay data set” (2004)
